Reference: US5225543A, “Receptors method for purification of G protein-linked” (priority 1991, dated 1993)
pIC50: −log10 of the molar value. “Also recorded” adds a separate entry of the source. Where no end group is shown, it is not given here. The star is where a group is joined. Biotin = O=C1N[C@H]2[C@H](CS[C@H]2CCCCC(=O)*)N1; Ahx = NCCCCCC(=O)O

Tests used:
[1] = biological target: receptor:ligand complex (GH4 C1 membranes, [^125 I]BioS28) (Rattus norvegicus, UniProt P30680); assay: Detergent solubilization of receptor:[^125 I]BioS28 complex, charcoal/dextran assay (Table 2A); settings: for Solubilization of specifically bound CPM (%): based on 14,013 cpm specifically bound [^125 I]BioS28 per sample; for Solubilized CPM in intact R:L complex (%): charcoal/dextran method; for solubilization and stabilization of receptor:ligand complex: [^125 I]BioS28, Table 2A
Sequence of receptor:ligand complex (GH4 C1 membranes, [^125 I]BioS28) (P30680 whole entry, one chain of several): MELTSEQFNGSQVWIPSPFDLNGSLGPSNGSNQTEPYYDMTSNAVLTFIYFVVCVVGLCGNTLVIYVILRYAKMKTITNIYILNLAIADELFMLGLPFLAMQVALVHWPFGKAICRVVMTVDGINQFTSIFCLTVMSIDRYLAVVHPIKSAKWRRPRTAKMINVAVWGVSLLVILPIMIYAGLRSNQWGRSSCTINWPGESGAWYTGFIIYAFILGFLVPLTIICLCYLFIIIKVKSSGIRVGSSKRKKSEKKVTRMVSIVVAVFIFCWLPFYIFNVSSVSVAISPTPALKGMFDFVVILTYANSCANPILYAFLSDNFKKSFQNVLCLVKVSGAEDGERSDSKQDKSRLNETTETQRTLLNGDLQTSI
Procedure: (§1) To solubilize membranes, washed pellets after the binding step are resuspended free of visible particles by pipetting and vortexing in solubilization buffer+1/100 (vol/vol) of 100× 4Pase protease inhibitors+detergent at the desired concentration. After 1 hour on ice, the samples are centrifuged at 100,000×g for 30 minutes. The supernatants are removed and held on ice and the pellets are discarded.
(§2) Sephadex G-50 columns (8×130 mm) are equilibrated with solubilization buffer containing detergent at the concentration used to solubilize membranes and 1 mg/ml bovine serum albumin. 0.2-0.5 ml samples of solubilized membranes are applied to the columns and eluted at a flow rate of about 0.7 ml/minute. 0.18 ml samples are collected. Radioactivity is determined in a gamma counter as described under "Receptor Binding Methods". Void volumes of the columns are determined by the elution volume of blue dextran. Radioactivity eluting in the void volume (>50,000 MW) was considered bound to protein. […] The mixture is held on ice for 15 minutes. Then 3 ml of 0.1M sodium phosphate (pH 7.4) is added to a final part of 4 ml per sample and the samples are rapidly (1-3 seconds) filtered over Whatman GF/B glass fiber filters and washed with 4 ml of the phosphate buffer. […] Whatman GF/B glass fiber filters are soaked in 0.3% polyethyleneimine (PEI, Sigma) for 3 hours. 25-100 ul samples of solubilized membranes are placed in 12×75 mm polypropylene tubes. Then 4 ml of solubilization buffer (without detergent) is added per sample and the samples are immediately filtered through the GFB/PEI filters (1-3 seconds) and washed with 4 ml of solubilization buffer. […] 0.5 gm of Dextran T70 (Pharmacia) is dissolved in 1 liter of water and then 5 gm of activated charcoal (Norit A, alkaline; Fisher Scientific) is added. The suspension is stirred for 10 minutes at room temperature and then stored at 4° C. until use. To measure R:L complex, 4 parts by volume of charcoal/dextran suspension are added to 1 part by volume of solubilized membrane. The samples are mixed and held on ice for 2 minutes and then centrifuged for 2 minutes at 11,000×g in a Beckman microfuge. Free radioligand is adsorbed to charcoal/dextran and is discarded with the pellet.
Membrane solubilization is conducted as already described; however, determination of the presence of the intact receptor:ligand complex in the 100,000×g supernatant is accomplished by charcoal/dextran assay ("Methods: Assay of Solubilized, 4.").

[2] = tested on: streptavidin; assay: Effect of detergent on binding of solubilized R:L complex to streptavidin (Table 2B); settings: for % of original R:L complex bound to SA: % R:L bound to SA × % solubilization of original R:L complex; for % of intact R:L nonbound to SA in 5 hours: streptavidin-agarose, charcoal/dextran assay
Procedure: The final determination is whether the detergent interferes with binding of the receptor:[^125 I]BioS-28. […] R:L complex in the supernatants ("non-bound to SA") after this time is measured by the charcoal/dextran assay. The % of non-bound, intact R:L complex is calculated from the ratio (R:L non-bound to SA/original R:L in the 100,000×g supernatant). The % of intact R:L complex bound to SA is calculated by subtracting % non-bound R:L from 100%. Finally, % of original R:L bound to SA=% R:L bound to SA×% solubilization of original membrane-bound R:L complex.

[3] = tested on: receptor:ligand complex (GH4 C1 membranes, [^125 I]Tyr11-S14); assay: Detergent solubilization of specifically bound [^125 I]Tyr11-S14 from GH4 C1 membranes and recovery of intact complex (FIGS. 2, 3); settings: [^125 I]Tyr11-S14, FIG. 2
Procedure: as §1, §2

[4] = biological target: T1, SRIF receptor (GH4 C1 membranes) (Rattus norvegicus, UniProt P30680); assay: Competitive radioligand binding vs [^125 I]Tyr11-S14 on GH4 C1 membranes (FIG. 4); settings: for pIC50: vs [^125 I]Tyr11-S14, 20 ug GH4 C1 membrane protein, 100,000 cpm (FIG. 4B)
T1 construct: GH4 C1 rat pituitary tumor cells; endogenous in cells; host or cells: GH4 C1 rat pituitary tumor cells (isolated membranes)
T1 sequence (P30680 whole entry): as the sequence (P30680 whole entry, one chain of several) above
Procedure: Membrane Isolation--1-8 liter batches of cells at densities of 6-10×10^5 cells/ml are pelleted in conical bottom glass centrifuge bottles (600 or 800 ml; Bellco) at 1,000× g for 5 min. The supernatants are carefully poured off and the cells are resuspended in ice cold homogenization medium (1 mM Na-bicarbonate at pH 7.6, 1 mM EDTA and 1 mM EGTA) containing 0.7% (vol/vol) of the "100×4pase" protease inhibitor cocktail (see below). Twenty ml of homogenization medium is used for every liter of suspension culture. After 5 min. on ice, the hypotonically swollen cells are homogenized with 10 strokes of a tight fitting Dounce homogenizer (Kontes, type A pestle). The homogenate is centrifuged at 1,000× g for 10 min. and the supernatant is removed and kept on ice. The 1,000× g pellet containing residual intact cells, nuclei and DNA is washed by gently homogenizing with 4 strokes with a type B pestle in one half the original volume of homogenization medium and recentrifuging for 10 min. at 1,000× g. The final 1,000× g pellet consists mostly of DNA and is discarded. The 1,000× g supernatants are combined and centrifuged at 20,000× g for 30 min. The 20,000× g pellet is washed twice in 25 mM Tris (pH 7.4), with centrifugation for 25 min. at 20,000 2 g. Final membrane pellets are resuspended in 25 mM Tris buffer to concentrations of 4-10 mg membrane protein/ml. Then the 100× 4pase protease inhibitor cocktails are added to 1% of final volume and aliquots are frozen on dry ice. Membranes are stored at -90° C. until needed. Membrane protein is assayed with the Bradford dye binding assay (Bio-Rad).
Standard Binding Assays--Binding assays are done in a binding buffer containing 50 mM HEPES (pH 7.4), 0.5% BSA and 5 mM MgCl2. The standard assay for [^125 I]SRIF analog binding to GH4 CL membranes, done in 96 well microtiter plates (Dynatech Immulon II Removawell plates), is carried out as follows: 1. Radioligand is diluted in binding buffer+PMSF/Baci to the desired cpm per vol. of 50 μl and then 50 μl aliquots are added to the wells. For non-specific binding samples, 5 μl of 40 μM cold S14 is also added per well. […] Binding is initiated by adding 150 μl per well of membrane diluted to the desired concentration (10-30 ug membrane protein/well) in binding buffer+PMSF/Baci. Plates are then covered with Linbro mylar plate sealers (Flow Labs) and placed on a Dynatech Microshaker II and binding is allowed to proceed at room temperature for 1-2 hours. Binding is stopped by centrifuging the plate for 15 minutes at 2,000×g. The supernatants are dumped off and membrane pellets washed once by addition of 200 μl of ice cold binding buffer, brief shaking and recentrifugation. Finally the individual wells are placed in 12×75 mm tubes and counted in an LKB Gammamaster counter (78% efficiency). […]

Compound | % Solubilization of original R:L in membranes (A × B) [1] | Solubilization of specifically bound CPM (%) [1] | Solubilized CPM in intact R:L complex (%) [1] | % of intact R:L bound to SA (100% - A) [2] | % of original R:L complex bound to SA [2] | % of intact R:L nonbound to SA in 5 hours [2] | solubilization of receptor:ligand complex / bound radioligand [3] | solubilization and stabilization of receptor:ligand complex [1] | potency relative to S14 in competitive binding assay ([4]; % the potency of S14, 40 ug membrane protein, 85,000 cpm (FIG. 4A)) | pIC50 [4]
C[C@H](CCC(=O)NCCC[N+](C)(C)CCCS(=O)(=O)[O-])[C@H]1CC[C@H]2[C@@H]3[C@H](O)C[C@@H]4C[C@H](O)CC[C@]4(C)[C@H]3C[C@H](O)[C@]12C [CHAPS] | 12% | 38% | 32% | 56% | 7% | 44% | total solubilization of radioligand is relatively low; also recorded: did not solubilize well at all at any concentration tested | – | – | –
C[C@H](CCC(=O)O)[C@H]1CC[C@H]2[C@@H]3CC[C@@H]4C[C@H](O)CC[C@]4(C)[C@H]3C[C@H](O)[C@]12C [Deoxycholate] | 31% | 93% | 33% | 89% | 29% | 11% | superior solubilization | satisfactory results | – | –
C[C@@H]1CC[C@@]2(OC1)O[C@H]1[C@@H](O)[C@H]3[C@@H]4CC[C@H]5C[C@@H](O[C@@H]6O[C@H](CO)[C@H](O[C@@H]7O[C@H](CO)[C@@H](O)[C@H](O[C@@H]8OC[C@@H](O)[C@H](O)[C@H]8O)[C@H]7O[C@@H]7O[C@H](CO)[C@H](O)[C@H](O[C@@H]8O[C@H](CO)[C@@H](O)[C@H](O)[C@H]8O)[C@H]7O)[C@H](O)[C@H]6O)[C@H](O)C[C@]5(C)[C@H]4CC[C@]3(C)[C@H]1[C@@H]2C [Digitonin] | 28% | 55% | 50% | 87% | 24% | 13% | less satisfactory but adequate levels of solubilization | satisfactory results | – | –
Biotinyl-NH--SRIF14 [Bio-S14] | – | – | – | – | – | – | – | – | about 1.5% | –
Biotinyl-[NH--(CH2)5 --CO]2 --NH-(Tyr11)SRIF14 ({Biotin-Ahx-Ahx}-AGCKNFFWKTYTSC; ends and bridges not checked; UniProt P61278 103-116, looked up, variant F11Y) [Bio-12C-S14] | – | – | – | – | – | – | – | – | – | 8.70
Biotinyl-[NH--(CH2)5 --CO]--NH-(Tyr11)SRIF14 ({Biotin-Ahx}-AGCKNFFWKTYTSC; ends and bridges not checked; UniProt P61278 103-116, looked up, variant F11Y) [Bio-6C-S14] | – | – | – | – | – | – | – | – | – | 8.70
Lysolecithin | 33% | 73% | 46% | 36% | 16% | 65% | less satisfactory but adequate levels of solubilization | satisfactory results | – | –
